The values that follow come from patent US20030194748A1, “Method for labeling with tritium” (priority 2000, published 2003).

For orientation: IC50 means the concentration that inhibits the measured activity by half.

The target of this experiment is T1, TXA2 receptor (Homo sapiens, UniProt P21731).
T1 construct: human platelet membrane fraction was prepared; from tissue; host or cells: human platelets (membrane fraction from the blood of normal adult donors)
T1 sequence (P21731 1-343): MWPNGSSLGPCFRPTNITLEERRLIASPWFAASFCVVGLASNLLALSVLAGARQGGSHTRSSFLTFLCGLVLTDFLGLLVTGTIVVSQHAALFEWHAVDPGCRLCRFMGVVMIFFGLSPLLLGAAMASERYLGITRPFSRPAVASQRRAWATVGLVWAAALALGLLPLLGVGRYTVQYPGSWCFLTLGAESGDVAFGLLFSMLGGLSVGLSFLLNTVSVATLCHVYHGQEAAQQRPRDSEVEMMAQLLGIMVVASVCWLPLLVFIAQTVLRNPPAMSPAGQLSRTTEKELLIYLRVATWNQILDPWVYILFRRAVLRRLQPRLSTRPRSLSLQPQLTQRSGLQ
Description: TXA2 receptor binding assay. The conditions noted are these: human platelet membrane fraction; displacement of 2 nM [3H](+)-S-145 sodium salt; 90 min at room temperature; read-out: inhibition activity IC50. Here is the method:
Blood which was obtained using a plastic syringe contained 3.8% sodium citrate from the vein of normal human (adult male and female) was put into a plastic tube, and after lightly mixing with tumbling, centrifuged at 1800 rpm, for 10 min. at a room temperature to obtain platelet rich plasma (PRP) in supernatant. The PRP was further centrifuged at 2,300 rpm, for 22 min. at a room temperature to obtain platelets. The obtained platelets was homogenized using homogenizer (Ultra-Turrax), and then, centrifuged at 20,000 rpm, for 10 min. at 4° C. to obtain a fraction of platelet membrane. The membrane fraction was subjected to a quantitative assay for a protein to be adjusted to 2 mg/ml, and kept at −80° C. in a freezer until a binding assay is conducted. […]
To 0.2 ml of a binding reaction mixture (50 mM Tris/HCl, pH 7.4, 10 mM MgCl2), human platelet membrane fraction (0.05 mg) and 26.4 Ci/mmol of 2 nM [^3H](+)-(5Z)-7-[3-endo-[(phenylsulfonyl)amino]bicyclo[2.2.1]hepto-2-exo-yl] heptenic acid sodium salt (Japanese Patent Publication No. H5-79060, referred hereinafter to (+)-S-145 sodium salt) were added, and reacted for 90 min at room temperature. After reaction, the reaction was filtered by using grass fiber filter, washed several times with cold saline, and then, radioactivity remaining on the filter was assayed. […]

On to `O=C(O)CCC/C=C\C[C@H]1[C@@H]2CC[C@@H](C2)[C@@H]1NC(=O)c1csc2ccc(O)cc12` [Compound 1], for which the 50% inhibitory concentration (IC50) is 0.15 µM. Consider `COC(=O)CCC/C=C\C[C@H]1[C@@H]2CC[C@@H](C2)[C@@H]1NC(=O)c1cccc2ccsc12` [Compound 2], for which the IC50 came out at 3.8 µM.
